Results on one compound are retold here after PMC4532424, “The Novel Cyclophilin Inhibitor CPI-431-32 Concurrently Blocks HCV and HIV-1 Infections via a Similar Mechanism of Action” (PLoS ONE, 2015).

Non-standard residues stand in square brackets, D forms with d. Residues, ends and D or L forms follow the SMILES beside them. NMeThr(4R-Me,4-(CH2)6NHAc) = CN[C@H](C(=O)O)[C@H](O)[C@H](C)CCCCCCNC(C)=O; NMeL = CN[C@@H](CC(C)C)C(=O)O; NMeV = CN[C@H](C(=O)O)C(C)C; dNMeA = CN[C@H](C)C(=O)O; Abu = CC[C@H](N)C(=O)O

This assay has as its system HCV-mediated double-membrane vesicle (DMV) formation. Nature of the assay: HCV NS3-NS5B-mediated double membrane vesicle (DMV) formation in T7/Huh7.5.1 cells, EM. The conditions noted are these: for DMV number: T7/Huh7.5.1 cells, pTMI (NS3-NS5B), DMSO control 365 +/- 18. Type of assay: cell-based, human. The method, then:
HCV-mediated DMV formation studies were conducted as we described recently using the pTM1(NS3-NS5B) plasmid and the T7/Huh7.5.1 cells developed by the Tai lab.
We then investigated the mechanism by which CPI-431-32 inhibits HCV replication. HCV is well known for its ability to reshape intracellular membranes to optimize RNA synthesis, especially by re-organizing the ER membrane close to the nucleus—the so-called membranous web (MW). […] We and others recently obtained evidence that the formation of DMVs highly depends on both CypA and HCV NS5A [60, 71, 72]. We thus asked whether CPI-431-32 inhibits HCV replication by preventing the creation of DMVs. To test this hypothesis, we took advantage of a T7 promoter driven JFH-1 NS3-NS5B DNA plasmid (pTM1(NS3-5B)) developed by the Tai lab that permits expression of NS3, NS4A, NS4B, NS5A and NS5B upon HCV polyprotein processing as well as viral RNA synthesis when transfected in T7 RNA polymerase expressing Huh7.5.1 cells (T7/Huh7.5.1 cells). Importantly, the expression of the HCV NS3-NS5B polyprotein suffices to create both the MV and DMVs independently of viral replication. All controls were presented previously. As we and others recently reported, NS3-5B expression mediates the formation of a significant number of DMVs in DMSO-treated cells (Fig 5).
Fig 5 CPI-431-32 blocks HCV-mediated double-membrane vesicle (DMV) formation. T7 polymerase expressing Huh7.5.1 cells were transfected in triplicates with JFH-1 NS3-NS5B plasmid in the presence of DMSO or increasing concentrations of CPI-431-32 and analyzed by EM as well as by Image J and ITEM software for DMVs quantification as described previously. Illustrating EM images of DMVs are presented with an amplification of 25,000x. Data are representative of two independent experiments. TEXT PRINTED IN THE PICTURE: DMSO: DMV number: 0 (Cells: T7/Huh7.5.1; HCV Plasmids: –); DMV number: 365 +/- 18 (Cells: T7/Huh7.5.1; HCV Plasmids: pTMI (NS3-NS5B)) | CPI-431-32: DMV number: 1 +/- 0 (2 μM; Cells: T7/Huh7.5.1; HCV Plasmids: pTMI (NS3-NS5B)); DMV number: 8 +/- 2 (0.5 μM; Cells: T7/Huh7.5.1; HCV Plasmids: pTMI (NS3-NS5B)); DMV number: 61 +/- 6 (0.125 μM; Cells: T7/Huh7.5.1; HCV Plasmids: pTMI (NS3-NS5B)); DMV number: 312 +/- 45 (0.03125 μM; Cells: T7/Huh7.5.1; HCV Plasmids: pTMI (NS3-NS5B))

With `CC[C@@H]1NC(=O)[C@H]([C@H](O)[C@H](C)CCCCCCNC(C)=O)N(C)C(=O)[C@H](C(C)C)N(C)C(=O)[C@H](CC(C)C)N(C)C(=O)[C@H](CC(C)C)N(C)C(=O)[C@@H](C)NC(=O)[C@H](C)NC(=O)[C@H](CC(C)C)N(C)C(=O)[C@H](C(C)C)NC(=O)[C@H](CC(C)C)N(C)C(=O)[C@@H](C)N(C)C1=O` [CPI-431-32] (cyclo(A[dA][NMeL][NMeL][NMeV][NMeThr(4R-Me,4-(CH2)6NHAc)][Abu][dNMeA][NMeL]V[NMeL])), the DMV number by setting is: (0.03125 μM) 312 +/- 45; (0.125 μM) 61 +/- 6; (0.5 μM) 8 +/- 2; (2 μM) 1 +/- 0. The “NS3-NS5B-mediated formation of DMVs (in words)” value (compared to DMSO control) is “profoundly decreased”.
